Broadly, the MIC is the lowest concentration that inhibits growth of the organism. For orientation: Cmax means the maximum level reached in the sampled fluid or tissue. As a reminder, the IC50 is the concentration that inhibits the measured activity by half.

SMILES strings stand for the structures. ≈ marks a conversion by molar mass, not a printed value.

In series [1] the test system is Mycobacterium tuberculosis. Nature of the series: Antimycobacterial activity against Mycobacterium tuberculosis H37Rv in 7H9 liquid medium after 7 days. Format: functional. The note with it: 168 h.
A short description of series [2]: Cmax in human plasma at 500 mg, po. Also noted: dose 500 mg, route oral. Format: ADME, organism-based.
In series [3] the test system is Mycobacterium tuberculosis. Description: Antimycobacterial activity against Mycobacterium tuberculosis H37Rv in 7H11 solid medium after 7 days. Format: functional. The following applies: 168 h.
The subject of series [4] is Mycobacterium tuberculosis. Nature of the series: Antimycobacterial activity against replicating Mycobacterium tuberculosis H37Rv at 125 ug/mL assessed as reduction of log10CFU/mL after 4 days relative to control. Format: functional.
For series [5], the system named is Mycobacterium tuberculosis. Nature of the series: Antimycobacterial activity against non-replicating Mycobacterium tuberculosis H37Rv at 125 ug/mL assessed as reduction of log10CFU/mL after 4 days relative to control. Format: functional.
Series [6] relates to Mycobacterium tuberculosis. Nature of the series: Antimycobacterial activity against replicating Mycobacterium tuberculosis H37Rv at 62 ug/mL assessed as reduction of log10CFU/mL. Format: functional, organism-based. The following applies: TDE = time-dependent effect.
Series [7] deals with Mycobacterium tuberculosis. Description: Antimycobacterial activity against replicating Mycobacterium tuberculosis H37Rv at 62 ug/mL assessed as reduction of log10CFU/mL after 4 days. Format: functional.
The subject of series [8] is Mycobacterium tuberculosis. Description: Antimycobacterial activity against replicating Mycobacterium tuberculosis H37Rv at 62 ug/mL assessed as reduction of log10CFU/mL after 10 days. Format: functional.
Series [9] has as its system Mycobacterium tuberculosis. Nature of the series: Antimycobacterial activity against non-replicating Mycobacterium tuberculosis H37Rv at 62 ug/mL assessed as reduction of log10CFU/mL after 6 days relative to control. Format: functional.
The subject of series [10] is Mycobacterium tuberculosis. Nature of the series: Antimycobacterial activity against Mycobacterium tuberculosis H37Rv after 8 days in presence of 0.04 to 5 mg/mL of BSA. Format: functional. The following applies: 192 h.
Series [11] relates to Mycobacterium tuberculosis. Nature of the series: Antimycobacterial activity against Mycobacterium tuberculosis H37Rv after 8 days in absence of BSA. Format: functional. The following applies: 192 h.
The next series concerns Giardia. Description: Antimicrobial activity against Giardia. Format: functional, organism-based.
The test system of the next series is Cryptosporidium. Description: Antimicrobial activity against Cryptosporidium. Format: functional.

Take `O=C(Nc1ncc([N+](=O)[O-])s1)c1ccccc1O` [TIZOXANIDE]: in series [1], the MIC was found to be 16 µg/mL (≈ 60.3 µM). For the same compound, in series [2], the highest level (Cmax) was 10600 ng/mL.

As to `CC(=O)Oc1ccccc1C(=O)Nc1ncc([N+](=O)[O-])s1` [NITAZOXANIDE], the MIC in series [1] came out at 16 µg/mL (≈ 52.1 µM); in series [3], 16 µg/mL (≈ 52.1 µM); in series [10] it was 16 µg/mL; in series [11], 1 µg/mL (≈ 3.25 µM); in the series on Cryptosporidium, 10 µg/mL (≈ 32.5 µM). Also, the Activity in [4] is 2; in series [5], 6; in [6], “tde”; in series [7] it was 1; in series [8] it was 3.5; in series [9], “>=5”. For the same compound, half-maximal inhibition with Giardia (IC50) was put at 2.5 µg/mL (≈ 8.14 µM).
